From patent US6384080B1, “Anthranilic acid derivatives as inhibitors of the cGMP-phosphodiesterase” (Fujisawa Pharmaceutical Co., Ltd., priority 1998, dated 2002)
Structures can show the parent of a compound that is named as a salt. Where two headings read alike, the source gives them in different places.

Biological target: T1, human platelet PDE-V (Homo sapiens, UniProt O76074)
T1 construct: Human platelet cGMP-PDE was separated from other isozymes in human platelets; from tissue; host or cells: human platelets
Assay: cGMP-Phosphodiesterase (PDE) assay, enzymatic inhibitory test
Format: biochemical
Protocol: cGMP-Phosphodiesterase (PDE) Assay
Human platelet cGMP-PDE was separated from other isozymes in human platelets by a modification of the method of Thompson et. al. (see Cyclic Nucleotide Phosphodiesterase (PDE), in Methods of Enzymatic analysis, Vol 4, p127-234, 1984). In enzyme inhibition assays, the test compounds were dissolved in DMSO and then diluted with assay buffer (50 mM Tris-HCl, 0.077 mg/ml dithiothreitol and 10 mg/ml snake venom, 1 mM EGTA, pH 8.0), at final concentrations ranging from 10^−10 to 10^−6 M. Assays were performed at 0.1 μM substrate ([^3H]-cGMP) concentration, at 30° C. for 10 minutes using enzyme dilutions which gave 10-20% hydrolysis of substrate. Each assay was initiated by addition of substrate and terminated by addition of anion exchange resin (Dowex® 1-X8, 250 mg/mg) followed by centrifugation for 10 minutes (3000 rpm, at 4° C.). Radioactivity of supernatant (^3H-GMP) was assayed by liquid scintillation counting.

[1] = human platelet PDE-V, 0.1 μM [3H]-cGMP substrate, 30° C., 10 minutes, read-out: Inhibitory activity IC50

SMILES | IC50 [1] [µM] | IC50 [µM]
COc1cc(CNC(=O)c2cc([N+](=O)[O-])ccc2NC2CCCC2)ccc1O [2-(Cyclopentylamino)-N-(4-hydroxy-3-methoxybenzyl)-5-nitrobenzamide] | < 0.01 | 
COc1ccc(CNC(=O)c2cc([N+](=O)[O-])ccc2NC2CCCC2)cc1 [2-(Cyclopentylamino)-N-(4-methoxybenzyl)-5-nitrobenzamide] | < 0.01 | 
O=C(NCc1cccs1)c1cc([N+](=O)[O-])ccc1NC1CCCC1 [2-(Cyclopentylamino)-5-nitro-N-(2-thienylmethyl)benzamide] | < 0.01 | 
CC[C@H](CO)Nc1ccc([N+](=O)[O-])cc1C(=O)NCc1ccc(Cl)c([N+](=O)[O-])c1 [(R)-N-(4-Chloro-3-nitrobenzyl)-2-[1-(hydroxymethyl)propylamino]-5-nitrobenzamide] |  | < 0.01
O=C(NCCc1ccccc1)c1cc([N+](=O)[O-])ccc1NC1CCCC1 [2-(Cyclopentylamino)-5-nitro-N-phenethylbenzamide] | < 0.01 | 
O=C(NCc1ccc2c(c1)OCO2)c1cc([N+](=O)[O-])ccc1N[C@H]1CC[C@@H](Cl)CC1 [2-(cis-4-chlorocyclohexylamino)-5-nitro-N-(1,3-benzodioxol-5-ylmethyl)benzamide] | < 0.01 | 
C[C@H](CO)Nc1ccc([N+](=O)[O-])cc1C(=O)NCc1ccc(-c2ccccc2)cc1 [(R)-2-(2-Hydroxy-1-methylethyl)amino-5-nitro-N-(4-phenybenzyl)benzamide] | < 0.01 | 
O=C(NCc1ccc2c(c1)OCO2)c1cc([N+](=O)[O-])ccc1NC1CCNCC1 [5-nitro-2-(4-piperidinylamino)-N-(1,3-benzodioxol-5-ylmethyl)benzamide] | < 0.01 | 
O=C(NCc1ccccc1)c1cc([N+](=O)[O-])ccc1NC1CCCCC1 [N-Benzyl-2-(cyclohexylamino)-5-nitrobenzamide] | < 0.01 | 
O=C(NCc1cc2ccccc2o1)c1cc([N+](=O)[O-])ccc1N[C@H]1CC[C@@H](O)CC1 [N-(Benzofuran-2-ylmethyl)-2-(cis-4-hydroxycyclohexylamino)-5-nitrobenzamide] | < 0.01 | 
CCOc1ccc(CNC(=O)c2cc([N+](=O)[O-])ccc2N[C@H]2CC[C@@H](O)CC2)cc1OC [N-(4-Ethoxy-3-methoxybenzyl)-2-(cis-4-hydroxycyclohexylamino)-5-nitrobenzamide] | < 0.01 | 
COc1ccc(CNC(=O)c2cc([N+](=O)[O-])ccc2N[C@H]2CC[C@H](NC(=N)N)CC2)cc1OC [N-(3,4-dimethoxybenzyl)-2-(trans-4-guanidinocyclohexylamino)-5-nitrobenzamide hydrochloride] | < 0.01 | 
CN1CCC(Nc2ccc([N+](=O)[O-])cc2C(=O)NCc2ccc3c(c2)OCO3)CC1 [2-(1-methyl-4-piperidinylamino)-5-nitro-N-(1,3-benzodioxol-5-ylmethyl)benzamide] | < 0.01 | 
O=C(NCc1cccc(Cl)c1)c1cc([N+](=O)[O-])ccc1NC1CCCC1 [N-(3-Chlorobenzyl)-2-(cyclopentylamino)-5-nitrobenzamide] | < 0.01 | 
NC(=O)C1CCC(Nc2ccc([N+](=O)[O-])cc2C(=O)NCc2ccc3c(c2)OCO3)CC1 (stereo not drawn) [2-(4-carbamoylcyclohexylamino)-5-nitro-N-(1,3-benzodioxol-5-ylmethyl)benzamide] | < 0.01 | 
COCCOc1ccc(CNC(=O)c2cc([N+](=O)[O-])ccc2N[C@H]2CC[C@@H](O)CC2)cc1OC [2-(cis-4-Hydroxycyclohexylamino)-N-[3-methoxy-4-(2-methoxyethoxy)benzyl]-5-nitrobenzamide] | < 0.01 | 
O=C(NCc1ccco1)c1cc([N+](=O)[O-])ccc1NC1CCCC1 [2-(Cyclopentylamino)-N-furfuryl-5-nitrobenzamide] | < 0.01 | 
COc1ccc(CNC(=O)c2cc([N+](=O)[O-])ccc2NC2CCN(C(=O)OC(C)(C)C)CC2)cc1OC [2-[1-(tert-Butoxycarbonyl)piperidin-4-ylamino]-N-(3,4-dimethoxybenzyl)-5-nitrobenzamide] | < 0.01 | 
COc1ccc(CNC(=O)c2cc([N+](=O)[O-])ccc2NC(CO)CO)cc1F [N-(3-Fluoro-4-methoxybenzyl)-2-[2-hydroxy-1-(hydroxynethyl)ethylamino]-5-nitrobenzamide] | < 0.01 | 
O=C1CCC(Nc2ccc([N+](=O)[O-])cc2C(=O)NCc2ccc3c(c2)OCO3)CC1 [5-nitro-2-(4-oxocyclohexylamino)-N-(1,3-benzodioxol-5-ylmethyl)benzamide] | < 0.01 | 
O=C(NCc1ccc(Cl)c(Cl)c1)c1cc([N+](=O)[O-])ccc1NC1CCCC1 [2-(Cyclopentylamino)-N-(3,4-dichlorobenzyl)-5-nitrobenzamide] | < 0.01 | 

SMILES | IC50 [1] [µM] | IC50 [µM]
O=C(NCc1ccc(Br)cc1)c1cc([N+](=O)[O-])ccc1NC1CCCC1 [N-(4-Bromobenzyl)-2-(cyclopentylamino)-5-nitrobenzamide] | < 0.01 | 
CC[C@H](CO)Nc1ccc([N+](=O)[O-])cc1C(=O)NCc1ccc2c(c1)OCO2 [(R)-2-(1-Ethyl-2-hydroxyethylamino)-5-nitro-N-(1,3-benzodioxol-5-ylmethyl)benzamide] | < 0.01 | 
CC(C)(C)OC(=O)N1CCC(Nc2ccc([N+](=O)[O-])cc2C(=O)NCc2ccc3c(c2)OCO3)CC1 [2-[1-(tert-Butoxycarbonyl)-4-piperidinylamino]-5-nitro-N-(1,3-benzodioxol-5-ylmethyl)benzamide] | < 0.01 | 
CSc1ccc(CNC(=O)c2cc([N+](=O)[O-])ccc2N[C@H]2CC[C@H](O)CC2)cc1 [2-(trans-4-Hydroxycyclohexyl)amino-N-[4-(methylthio)benzy]-5-nitrobenzamide] | < 0.01 | 
COc1ccc(CNC(=O)c2cc([N+](=O)[O-])ccc2NC2CCN(C(=N)N)CC2)cc1OC [2-(1-Amidinopiperidin-4-ylamino)-N-(3,4-dimethoxybenzyl)-5-nitrobenzamide hydrochloride] | < 0.01 | 
COc1ccc(CNC(=O)c2cc([N+](=O)[O-])ccc2NC2CCNCC2)cc1OC [N-(3,4-Dimethoxybenzyl)-5-nitro-2-(4-piperidinylamino)benzamide] | < 0.01 | 
Nc1ccc(CNC(=O)c2cc([N+](=O)[O-])ccc2NC2CCCC2)c(Cl)c1 [N-(4-amino-2-chlorobenzyl)-2-(cyclopentylamino)-5-nitrobenzamide] | < 0.01 | 
COc1ccc(CNC(=O)c2cc([N+](=O)[O-])ccc2N[C@H]2CC[C@H](N)CC2)cc1OC [2-[(trans-4-Aminocyclohexyl)amino]-N-(3,4-dimethoxybenzyl)-5-nitrobenzamide] | < 0.01 | 
O=C(NCc1ccccc1)c1cc([N+](=O)[O-])ccc1NC1CCC(O)C1 (stereo not drawn) [N-Benzyl-2-(3-hydroxycyclopentylamino)-5-nitrobenzamide] | < 0.01 | 
COc1ccc(CNC(=O)c2cc([N+](=O)[O-])ccc2N[C@H](CO)CNC=O)cc1OC [(S)-N-(3,4-Dimethoxybenzyl)-2-[1-(formamidomethyl)-2-hydroxyethylamino]-5-nitrobenzamide] | < 0.01 | 
COc1cc(CNC(=O)c2cc([N+](=O)[O-])ccc2NC(CO)CO)ccc1C [2-[2-Hydroxy-1-hydroxymethyl)ethylamino]-N-(3-methoxy-4-methylbenzyl)-5-nitrobenzamide] | < 0.01 | 
O=CN1CCC(Nc2ccc([N+](=O)[O-])cc2C(=O)NCc2ccc3c(c2)OCO3)CC1 [2-(1-Formyl-4-piperidinylamino)-5-nitro-N-(1,3-benzodioxol-5-ylmethyl)benzamide] | < 0.01 | 
CCCNC(=O)N[C@H]1CC[C@H](Nc2ccc([N+](=O)[O-])cc2C(=O)NCc2ccc(OC)c(OC)c2)CC1 [N-(3,4-dimethoxybenzyl)-5-nitro-2-[trans-4-(3-propylureido)cyclohexylamino]benzamide] | < 0.01 | 
O=C(NCc1ccc([N+](=O)[O-])cc1)c1cc([N+](=O)[O-])ccc1NC1CCCC1 [2-(Cyclopentylamino)-5-nitro-N-(4-nitrobenzyl)benzamide] |  | < 0.01
CC(=O)N1CCC(Nc2ccc([N+](=O)[O-])cc2C(=O)NCc2ccc3c(c2)OCO3)CC1 [2-(1-acetyl-4-piperidinylamino)-5-nitro-N-(1,3-benzodioxol-5-ylmethyl)benzamide] | < 0.01 | 
CCOc1cc(CNC(=O)c2cc([N+](=O)[O-])ccc2N[C@H]2CC[C@@H](O)CC2)ccc1Cl [N-(4-Chloro-3-ethoxybenzyl)-2-(cis-4-hydroxycyclohexylamino)-5-nitrobenzaride] | < 0.01 | 
CCOc1ccc(CNC(=O)c2cc([N+](=O)[O-])ccc2N[C@H]2CC[C@H](NC=O)CC2)cc1OC [N-(4-Ethoxy-3-methoxybenzyl)-2-(trans-4-formamidocyclohexylamino)-5-nitrobenzamide] | < 0.01 | 
CCOC(=O)N1CCC(Nc2ccc([N+](=O)[O-])cc2C(=O)NCc2ccc3c(c2)OCO3)CC1 [2-[1-(Ethoxycarbonyl)piperidin-4-ylamino]-5-nitro-N-(1,3-benzodioxol-5-ylmethyl)benzamide] | < 0.01 | 
O=C(NCCCc1ccccc1)c1cc([N+](=O)[O-])ccc1NC1CCCC1 [2-(Cyclopentylamino)-5-nitro-N-(3-phenylpropyl)benzamide] | < 0.01 | 
O=C(NCc1ccc(F)cc1)c1cc([N+](=O)[O-])ccc1NC1CCCC1 [2-(Cyclopentylamino)-N-(4-fluorobenzyl)-5-nitrobenzamide] | < 0.01 | 
COc1ccc(CNC(=O)c2cc([N+](=O)[O-])ccc2N[C@H](C(N)=O)[C@@H](C)O)cc1OC [2-[(1S, 2R)-1-(Carbamoyl)-2-hydroxypropylamino]-N-(3,4-dimethoxybenzyl)-5-nitrobenzamide] | < 0.01 | 
